Data on 2 compounds can be found in PMC8895762 (BMC Complementary Medicine and Therapies, 2022).

Read-outs that look alike come from different tables or passages of the source.

Series [1] can be described thus: CCK-8 cell viability assay. The series is classed as cell-based, Murine. The following applies: mouse. On the procedure: (§1) Murine RAW 264.7 macrophages were purchased from the American Tissue Culture Collection (Manassas, USA). These cells were incubated in DMEM supplemented with 10% FBS, 100 U/mL penicillin and 100 U/mL streptomycin in humidified 5% carbon dioxide (CO2) at 37 °C [16, 17].
The effects of 19 constituents on the viability of RAW 264.7 macrophages were assessed by CCK-8 assay. Prior to treatment, RAW 264.7 macrophages (5 × 10^3 cells/well) were seeded into 96-well plates and incubated for 24 h. All cultured cells were treated with or without 19 compounds at a concentration of 40 μM at 37 °C for 24 h. After incubation, 10 μL of CCK-8 solution was added to each well and incubated at 37 °C. After 2 h, the absorbance of each well was measured at 450 nm in a microplate reader. Cell viability was calculated using the following formular:
Cell viability (%) = Asample/Acontrol × 100, where Asample and Acontrol are the absorbance of cells treated with the compound and untreated cells, respectively. Moreover, the latter is expressed as 100% cell viability.
(Tetrazolium dyes change colour on reduction, which living cells bring about.)

Series [2] deals with NO production in LPS-stimulated RAW 264.7 macrophages. The series can be described thus: NO production by the Griess method. Format: cell-based, Murine. The following applies: LPS 1 μg/mL; for IC50: RAW 264.7 macrophages, mean ± SD, n = 3; for inhibition at 40 µM: RAW264.7, read-out: NO inhibition rate. On the procedure:
as §1
The effects of 19 constituents on NO production in LPS-induced RAW 264.7 macrophages were determined using the Griess method. Prior to treatment, RAW 264.7 macrophages (5 × 10^3 cells/well) were seeded into 96-well plates and incubated for 24 h. […] After 1 h, cells were incubated with or without LPS at a concentration of 1 μg/mL at 37 °C for 24 h. After incubation, 50 μL of each supernatant solution was collected and mixed with equal volumes of Griess Reagent I and Griess Reagent II, respectively. The absorbance (A) was measured at 540 nm after 10 min of incubation at room temperature. The standard concentration of sodium nitrite was used to calculate the nitrite concentration. Moreover, the NO inhibition rate (%) = (ALPS − ALPS + sample)/(ALPS − Acontrol) × 100, where ALPS, ALPS + sample, and Acontrol are the absorbance of LPS model group, LPS + sample group, and DMEM group, respectively.
A general note: Griess reagent forms a coloured azo dye with nitrite.

For series [3], the system named is TNF-α in LPS-stimulated RAW 264.7 macrophages. The series can be described thus: TNF-α secretion by ELISA. Format: cell-based, Murine. Particulars: 20 μM, LPS 1 μg/mL, 24 h, compared to the LPS group, p < 0.01. On the procedure:
(§2) The logarithmic growth phase of RAW 264.7 macrophages was inoculated in 96-well plates at a density of 5 × 10^3 cells/well. After 24 h of incubation, these cells were pretreated with respective concentrations of 20 μM of each compound (1, 4–6, 15 and 17) for 1 h, followed by the addition of LPS (1 μg/mL) for 24 h. Finally, 50 μL of each supernatant solution was taken to measure the concentrations of TNF-α, PGE2, IL-1β and IL-6, using the corresponding commercially available murine ELISA kits in accordance with the manufacturer’s instructions.
For orientation: In an ELISA, binding on a coated surface is turned into a signal by an enzyme label.

For series [4], the system named is PGE2 in LPS-stimulated RAW 264.7 macrophages. Put plainly: PGE2 secretion by ELISA. The series is classed as cell-based, Murine. The following applies: 20 μM, LPS 1 μg/mL, 24 h, compared to the LPS group, p < 0.01. Here is the method: as §2
Series [5] relates to IL-1β in LPS-stimulated RAW 264.7 macrophages. Put plainly: IL-1β secretion by ELISA. The series is classed as cell-based, Murine. The following applies: 20 μM, LPS 1 μg/mL, 24 h, compared to the LPS group, p < 0.01. On the procedure:
as §2

Series [6] relates to IL-6 in LPS-stimulated RAW 264.7 macrophages. The series can be described thus: IL-6 secretion by ELISA. Format: cell-based, Murine. Particulars: 20 μM, LPS 1 μg/mL, 24 h, compared to the LPS group, p < 0.01. Here is the method: as §2
Series [7] relates to phosphorylated NF-κB p65 in LPS-stimulated RAW 264.7 macrophages. Put plainly: NF-κB activation by Western blotting. The series is classed as cell-based, Murine. The following applies: 20 μM, LPS 1 μg/mL, 24 h, compared to the LPS group, p < 0.01. Here is the method:
RAW 264.7 macrophages were seeded and pretreated with respective concentrations of 20 μM of each compound (1, 4–6, 15 and 17) for 1 h, followed by the addition of LPS (1 μg/mL) for 24 h. Subsequently, the total protein was extracted by resuspending the cells in RIPA lysis buffer. In addition, protein concentrations were measured by a Bicinchoninic acid (BCA) assay kit. Proteins were separated using SDS-PAGE gels and then electroplated onto a PVDF membrane, which was blocked with 5% skim milk for 1 h at room temperature in Tris-buffered saline-Tween (TBST). Membranes were washed three times with TBST and then incubated overnight at 4 °C in diluted (1:1000) primary antibody solution (anti-NF-κB p65 or anti-phosphorylated-NF-κB p65). After washing three times with TBST, the membranes were incubated with a 1:5000 dilution of HRP-conjugated secondary antibody for 1 h at room temperature. The immunoreactive bands were determined by densitometry and quantified using a Bio-Rad auto-developer (Bio-Rad, California, USA). All results are expressed as relative ratios to the reference protein GAPDH [16, 17].

Series [8] has as its system inflammatory cytokines in cells. Further details: method as in PMID 20221843, PMID 12105943, PMID 18448292, PMID 25821492. Particulars: cited from earlier work.
Another series concerns BV2 microglia. Further details: method as in PMID 22552813. Particulars: 40, 60 and 80 μM; cited from earlier work.

Turning to `O=c1c(O)c(-c2ccc(O)cc2)oc2cc(O)cc(O)c12` [Compound 1, kaempferol], in series [1], the viability at 24 h, 40 µM stood at 92.4 ± 3.96%. The IC50 was 18.4 ± 2.67 µM in [2] (24 h) and no more than 20 µM in [2] (Mus musculus, RAW264.7, 24 h). Further, the inhibition at 40 µM in series [2] (Mus musculus, 24 h) was greater than 50%. In addition, the “Level of TNF-α” value in series [3] is recorded as “significantly reduced”. Further, in series [4], the “Level of PGE2” value was “significantly reduced”. Further, the “Level of IL-1β” value in series [5] is listed as “significantly reduced”. The “Level of IL-6” value in series [6] was “significantly reduced”. Also, the “Phosphorylation of NF-κB p65 levels” value in series [7] is “significantly lower”. In addition, the “Anti-inflammatory effects by suppressing the secretion of inflammatory cytokines” value in series [8] is listed as “anti-inflammatory effects”.
As to `O=C1C[C@@H](c2ccc(O)cc2)Oc2cc(O)cc(O)c21` [Compound 14, naringenin], the viability at 24 h, 40 µM in series [1] (40 μM, 24 h, RAW 264.7 macrophages, mean ± SD, n = 3, read-out: Cell viability (%)) worked out at 93 ± 6.19%. Also, it took 38.5 ± 2.78 µM to reach half-maximal inhibition in series [2] (Mus musculus, RAW264.7, 24 h) (IC50). Besides, the inhibition at 40 µM in series [2] (Mus musculus, 24 h) was greater than 50%. The “Anti-inflammatory effect via inhibition of NF-κB and MAPKs pathways” value in the series on BV2 microglia is reported as “possessed anti-inflammatory effect”.

As a reminder, the viability is a per cent measure of how many cells are alive, often set against a control. As usually defined, the IC50 is the concentration at which inhibition is half-maximal. Higher therefore signals lower potency. For orientation: inhibition means the share of the control response that was lost under treatment.
